Assay results: patent US10856562B2, “Flavor composition and edible compositions containing same” (MARS, INCORPORATED, priority 2013, dated 2020)
Square brackets hold non-standard residues; d marks the D form. Ends that are not written are not given here. pGlu = O=C1CC[C@@H](C(=O)O)N1

Tests used:
panelists [1] = assay: Consensus attribute scores of flavor enhancers in Uncle Ben's Garden Vegetable Ready rice; format: in vivo, human; design: key to Cooked White Rice / Vegetable Oil / Vegetable Complex / Cooked Green Vegetable / Cooked Corn / Sweet (BASIC TASTES) / Salt (BASIC TASTES) / Mouthdrying (Texture) / Residual Mouthcoating (Texture) / Total Aromatics / Bitter (BASIC TASTES): 15-point scale, 0 = none, 15 = very strong; conditions: for Bitter (BASIC TASTES) / Black Pepper / Cooked Corn / Cooked Green Vegetable / Cooked White Rice / Dehydrated onion/garlic / HVP/Brothy / Mineral/Flint / Mouthdrying (Texture) / Residual Mouthcoating (Texture) / Salt (BASIC TASTES) / Salt Burn (Chemical Feeling Factors) / Sweet (BASIC TASTES) / Total Aromatics / Umami (Chemical Feeling Factors) / Vegetable Complex / Vegetable Oil: rice
Description: Descriptive attributes (e.g., taste, flavor and chemical feeling factors) of three use levels of pGlu-Cys (FE-35), pGlu-Cys-Gly (FE-36), pGlu-Cys-Cys (FE-37), pGlu-Cys-Val (FE-38) and pGlu-Val-Cys (UE-30) flavor composition peptides were determined. The three use levels were as follows: 1.0 ppb, 10.0 ppb and 100.0 ppb.
Data was collected for the attributes of the product in-mouth for the use levels according to the following protocol: • The samples were analyzed for flavor by six to nine members of a panel, trained and experienced in flavor evaluation using the Spectrum™ method. Samples were evaluated across multiple panel sessions. • The strength of each attribute was rated on a 15-point scale, where 0=none and 15=very strong. • This scale incorporates the ability to use tenths of a point and therefore has the potential of 150 scale differentiations. • The scale may be expanded beyond 15 points to include extreme ratings if necessary.
Preparation of Rice Samples • Each flavor enhancer was tested in Uncle Ben's Garden Vegetable Ready rice matrix at 3 different concentrations: 1 ppb, 10 ppb and 100 ppb. A total of 15 points with flavor enhancers were prepared for sensory evaluation. Additionally, 15 control samples were prepared. Each point had 2 samples (test and control) and was made from one pouch of rice. • Directions to prepare the solutions: • The 15 ready- to eat pouches were microwaved according to the procedure found on the back of the pouch: (1) squeeze pouch to separate rice, (2) tear two inches to vent, (3) heat on High for 90 seconds and (4) remove from microwave using COOL TOUCH area on untorn side. • From each pouch 124.75 g (test sample) and 99.8 g (control) were weighed out. The test sample had the flavor enhancer and/or salt. The control sample only had salt added. • The flavor enhancer and/or salt (non-iodized salt) were weighed in a soufflé cup. The weighed amount of flavor enhancer and/or salt was added to the sub-sampled rice. The rice was stirred and mixed to evenly distribute the salt added. • Some rice was placed back into the soufflé cup, sealed, and the cup was shook to get the flavor enhancer and/or salt that may have been stuck on the walls of the soufflé cup. After shaking the soufflé cup, the rice was added back to the original sub-sampled rice and stirred/mixed again. • Each sample (test and control) was microwaved for another 30 seconds (or until warm) to ensure that the salts/compounds were going completely into the solutions. • All samples (test and control) were tasted at the same temperature. • Each test sample had 0.2% NaCl added and flavor enhancers at the specified concentrations.
A summary of the concentrations of NaCl and flavor composition peptides in the rice samples is described in table 23. The first value of each cell represents a single sample amount of an ingredient in milligrams, and the second number in parenthesis is a doubling of the ingredient (in grams) for use in a doubled size sample.
The panelists evaluated each sample for the attributes described by table 25.

panelists [2] = assay: Degree of Difference (DOD) of test rice from control rice; format: in vivo, human; design: Degree of Difference in rice: scale not given here; conditions: for Degree of Difference in rice: difference from Control; for Degree of Difference in rice / DOD from Control: rice; for DOD from Control: scale 0.0 to 10.0
Text: The present example describes the evaluation of the descriptive profile of pGlu-Cys (identified as “FE-35”), pGlu-Cys-Gly (identified as “FE-36”), pGlu-Cys-Cys (identified as “FE-37”), pGlu-Cys-Val (identified as “FE-38”) and pGlu-Val-Cys (identified as “UE-30”) peptides of the present application. An objective of the study was to understand the efficacy of flavor enhancer compounds FE-35, FE-36, FE-37, FE-38 and UE-30 in increasing concentrations both in solution and in rice, and to determine a Degree of Difference (DOD) score between a control rice sample (which includes NaCl, and no flavor composition peptide) and the test rice samples (with added flavor composition peptides at increasing concentrations).

## [pGlu]-Cys-Cys (cysteine pairing not given here) [FE-37]
Panelists [1]; all samples (1, 10, 100 ppb)
  Bitter in rice: low in bitter
  Cooked green vegetable in rice compared to the Control: low level of cooked green vegetable
  Mineral/flint note in rice, not seen in the Control: low mineral/flint note
  Mouthdrying in rice, not seen in the Control: have mouthdrying
  Salt burn feeling factor in rice compared to the Control: higher
  Salt in rice compared to the Control: saltier than the Control
  Umami feeling factor in rice compared to the Control: higher
Panelists [1]; 1.0 ppb (5 ppm)
  Bitter (BASIC TASTES): 0.8
  Black Pepper: 1.0
  Cooked Corn: 0.5
  Cooked Green Vegetable: 0.5
  Cooked White Rice: 3.0
  Dehydrated onion/garlic: 1.3
  HVP/Brothy: 1.0
  Mineral/Flint: 0.8
  Mouthdrying (Texture): 1.0
  Residual Mouthcoating (Texture): 1.0
  Salt (BASIC TASTES): 15.0
  Salt Burn (Chemical Feeling Factors): 0.8
  Sweet (BASIC TASTES): 3.0
  Total Aromatics: 6.0
  Umami (Chemical Feeling Factors): 1.5
  Vegetable Complex: 1.0
  Vegetable Oil: 0.8
Panelists [1]; 10.0 ppb (50 ppm)
  Bitter (BASIC TASTES): 1.5
  Black Pepper: 1.0
  Cooked Corn: 0.5
  Cooked Green Vegetable: 0.5
  Cooked White Rice: 3.0
  Dehydrated onion/garlic: 1.5
  HVP/Brothy: 1.5
  Mineral/Flint: 0.8
  Mouthdrying (Texture): 1.5
  Residual Mouthcoating (Texture): 1.0
  Salt (BASIC TASTES): 15.5
  Salt Burn (Chemical Feeling Factors): 1.3
  Sweet (BASIC TASTES): 3.5
  Total Aromatics: 6.5
  Umami (Chemical Feeling Factors): 2.5
  Vegetable Complex: 1.0
  Vegetable Oil: 0.8
Panelists [1]; 100 ppb (50 ppm)
  Bitter (BASIC TASTES): 1.0
  Black Pepper: 1.0
  Cooked Corn: 0.8
  Cooked Green Vegetable: 0.8
  Cooked White Rice: 3.0
  Dehydrated onion/garlic: 1.5
  HVP/Brothy: 1.5
  Mineral/Flint: 1.0
  Mouthdrying (Texture): 1.5
  Residual Mouthcoating (Texture): 1.0
  Salt (BASIC TASTES): 16.0
  Salt Burn (Chemical Feeling Factors): 1.8
  Sweet (BASIC TASTES): 3.5
  Total Aromatics: 6.5
  Umami (Chemical Feeling Factors): 3.0
  Vegetable Complex: 1.5
  Vegetable Oil: 0.8
Panelists [2]; 1 and 10 ppb
  Whether consumers notice a difference between the Control and test rice (DOD): Consumers will may or may not notice a difference
Panelists [2]; 10 ppb
  Whether consumers notice a difference between the Control and test rice (DOD): Consumers may or may not notice a difference
Panelists [2]; 100 ppb
  Whether consumers notice a difference between the Control and test rice (DOD): Consumers will likely notice a difference
Panelists [2]; 1.0 ppb
  Degree of Difference in rice: 4.0
Panelists [2]; 10.0 ppb
  Degree of Difference in rice: 4.5
Panelists [2]; 100.0 ppb
  Degree of Difference in rice: 5.0
Panelists [2]; 1.0 ppb (5 ppm)
  DOD from Control: 4.0
Panelists [2]; 10.0 ppb (50 ppm)
  DOD from Control: 4.5
Panelists [2]; 100 ppb (50 ppm)
  DOD from Control: 5.0

## [pGlu]-Cys-Val [FE-38]
Panelists [1]; 1 & 100 ppb
  Cooked green vegetable in rice compared to the Control: low level of cooked green vegetable
Panelists [1]; all samples (1, 10, 100 ppb)
  Bitter in rice: bitter
  Mineral/flint note in rice, not seen in the Control: low mineral/flint note
  Mouthdrying in rice, not seen in the Control: have mouthdrying
  Salt burn feeling factor in rice compared to the Control: higher
  Umami feeling factor in rice compared to the Control: higher
Panelists [1]; 1.0 ppb (5 ppm)
  Bitter (BASIC TASTES): 0.8
  Black Pepper: 1.0
  Cooked Corn: 0.8
  Cooked Green Vegetable: 0.8
  Cooked White Rice: 3.0
  Dehydrated onion/garlic: 1.0
  HVP/Brothy: 1.0
  Mineral/Flint: 1.0
  Mouthdrying (Texture): 1.8
  Residual Mouthcoating (Texture): 1.0
  Salt (BASIC TASTES): 13.8
  Salt Burn (Chemical Feeling Factors): 1.0
  Sweet (BASIC TASTES): 3.5
  Total Aromatics: 6.3
  Umami (Chemical Feeling Factors): 2.0
  Vegetable Complex: 1.5
  Vegetable Oil: 0.8
Panelists [1]; 10.0 ppb (50 ppm)
  Bitter (BASIC TASTES): 1.2
  Black Pepper: 1.0
  Cooked Corn: 1.0
  Cooked Green Vegetable: 0.0
  Cooked White Rice: 3.0
  Dehydrated onion/garlic: 0.8
  HVP/Brothy: 1.0
  Mineral/Flint: 1.5
  Mouthdrying (Texture): 2.0
  Residual Mouthcoating (Texture): 1.0
  Salt (BASIC TASTES): 13.0
  Salt Burn (Chemical Feeling Factors): 1.0
  Sweet (BASIC TASTES): 3.3
  Total Aromatics: 6.0
  Umami (Chemical Feeling Factors): 2.0
  Vegetable Complex: 1.0
  Vegetable Oil: 1.0
Panelists [1]; 100 ppb (50 ppm)
  Bitter (BASIC TASTES): 0.8
  Black Pepper: 1.0
  Cooked Corn: 0.8
  Cooked Green Vegetable: 0.8
  Cooked White Rice: 3.0
  Dehydrated onion/garlic: 1.0
  HVP/Brothy: 1.5
  Mineral/Flint: 1.0
  Mouthdrying (Texture): 2.5
  Residual Mouthcoating (Texture): 1.0
  Salt (BASIC TASTES): 13.5
  Salt Burn (Chemical Feeling Factors): 1.3
  Sweet (BASIC TASTES): 3.5
  Total Aromatics: 6.5
  Umami (Chemical Feeling Factors): 3.0
  Vegetable Complex: 1.5
  Vegetable Oil: 0.8
Panelists [2]; 1 and 100 ppb
  Whether consumers notice a difference between the Control and test rice (DOD): Consumers may or may not notice a difference
Panelists [2]; 10 ppb
  Whether consumers notice a difference between the Control and test rice (DOD): Consumers will likely notice a difference
Panelists [2]; 1.0 ppb
  Degree of Difference in rice: 4.5
Panelists [2]; 10.0 ppb
  Degree of Difference in rice: 5.0
Panelists [2]; 100.0 ppb
  Degree of Difference in rice: 4.5
Panelists [2]; 1.0 ppb (5 ppm)
  DOD from Control: 4.5
Panelists [2]; 10.0 ppb (50 ppm)
  DOD from Control: 5.0
Panelists [2]; 100 ppb (50 ppm)
  DOD from Control: 4.5
